Target: D(3) dopamine receptor (Rattus norvegicus) (UniProt P19020)
Assay: Saturable binding was tested dopamine receptor D3 in rat striatal membrane homogenate
Type: cell membranes
Details: Striatum

D(3) dopamine receptor (Rattus norvegicus), sequence (P19020 whole entry): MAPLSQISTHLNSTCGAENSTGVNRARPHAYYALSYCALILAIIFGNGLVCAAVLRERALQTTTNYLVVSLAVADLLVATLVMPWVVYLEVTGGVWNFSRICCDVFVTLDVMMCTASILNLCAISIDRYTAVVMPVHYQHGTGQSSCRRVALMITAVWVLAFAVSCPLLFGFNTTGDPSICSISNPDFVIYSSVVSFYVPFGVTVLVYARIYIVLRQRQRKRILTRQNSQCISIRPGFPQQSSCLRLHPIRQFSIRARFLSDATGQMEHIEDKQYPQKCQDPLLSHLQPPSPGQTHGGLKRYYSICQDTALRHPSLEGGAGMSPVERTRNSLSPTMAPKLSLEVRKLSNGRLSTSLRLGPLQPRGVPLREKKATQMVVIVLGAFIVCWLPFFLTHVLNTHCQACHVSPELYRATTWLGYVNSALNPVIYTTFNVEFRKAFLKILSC

For `CCCN(C/C=C/I)C1CCc2ccc(O)cc2C1` (stereo unspecified), the Bmax (fM (mg of protein)-1) was 240.
